Measured values: patent US6399654B1, “Biflavanoids and derivatives thereof as antiviral agents” (priority 1995, dated 2002)
In brackets after ≈: the same amount, converted by molar mass. Like-named read-outs stand apart in the source and are kept apart here.

What was measured:
Hepatitis B Virus (HBV) = assay: Inhibition of HBV replication in 2.2.15 cells, extracellular (virion) HBV DNA; settings: for EC50 / EC90: Hepatitis B virus; for anti-HBV activity (in words): 2.2.15 cells;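 for all read-outs here: extracellular virion HBV DNA in culture medium measured by slot blot hybridization with a 32P-labeled HBV probe, quantified against HBV DNA standards, after 9 days of daily dosing, compared with day 0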
Experimental: Test compounds were added daily for a nine continuous day period; the culture medium was collected and stored for analysis of extracellular (virion) HBV DNA after 0, 3, 6, and 9 days of treatment. The treated cells were lysed 24 hours following day 9 of treatment for the analysis of intracellular HBV genomic forms. The overall levels of HBV DNA (both extracellular and intracellular DNA) and the relative rate of HBV replication (intracellular DNA) were analyzed quantitatively. The analysis was performed using blot hybridization techniques and [^32P]-labeled HBV-specific probes. The HBV DNA levels were measured by comparison to known amounts of HBV DNA standards applied to every nitrocellulose membrane (gel or slot blot). An AMBIS beta scanner, which measures the radioactive decay of the hybridized probes directly from the nitrocellulose membranes, was used for the quantitative analysis. Standard curves, generated by multiple analyses, were used to correlate CPM measurements made by the beta scanner with relative levels of target HBV DNA. The levels of HBV virion DNA released into the culture medium were analyzed by a slot blot hybridization procedure. HBV DNA levels were then compared to those at day 0 to determine the effect of the test compound. A known positive drug was evaluated in parallel with test compounds in each test.
Determination of therapeutic concentrations (EC50 and EC90) and toxicity concentrations (IC50) were determined as previously described (90). Stock solutions of text drugs were prepared in DMSO. Culture medium was changed daily and analyzed for extracellular HBV DNA after nine days of continuous drug exposure. Extracellular HBV DNA was extracted from the culture media and analyzed by a slot blot hydridization technique, using a ^32P-labeled Eco RI HBV DNA fragment, as previously described (91), and quantitated via comparison to HBV standards on a nitrocellulose filter, using an AMBIS beta scanner. Toxicity was determined by measuring inhibition of neutral red dye uptake. […] Effective concentration values for individual agents are the mean of six cultures per concentration point. Toxicity values are the mean of three cultures per concentration point.

2.2.15 cells = assay: HBV cytotoxicity assay, neutral red dye uptake in 2.2.15 cells; format: cell-based; settings: Homo sapiens, read-out: IC50 (toxicity, neutral red dye uptake)
Experimental: The toxicity of the test compounds in cultures of 2.2.15 cells, grown to confluence in 96-well flat-bottomed tissue culture plates and treated with compounds as described above, were assayed at four concentrations each in triplicate cultures, in 3 to 10-fold steps. Untreated control cultures were maintained on each plate. On each plate, wells containing no cells were used to correct for light scattering.
Stock solutions of text drugs were prepared in DMSO.

[1] = Cytotoxicity (CC50) in HFF cells in the herpes virus tests; settings: human
HIV-1 RT = molecular target: T1, HIV-1 RT (Human immunodeficiency virus type 1 group M subtype B, UniProt P03366); assay: Anti-HIV-1 RT assay (recombinant enzyme); format: biochemical
T1 construct: made in house; host or cells: Escherichia coli

[2] = tested on: Influenza A (H3N2) Beijing/32/92; assay: microbe, parasite or virus in culture; format: cell-based, influenza A virus; settings: Influenza A virus, MDCK; Influenza A (H3N2) Beijing/32/92; read-out: CPE Inhibition EC50
VZV = VZV plaque reduction assay in HFF cells; settings: for VZV SI (CC50/EC50): HFF Cells
[3] = tested on: Respiratory Syncytial Virus; assay: microbe, parasite or virus in culture; format: cell-based; settings: human respiratory syncytial virus, MA104; read-out: Neutral Red EC50
in vitro [4] = settings: human
[5] = tested on: Parainfluenza Type 3 Virus; assay: organism not typed; format: cell-based; settings: MA104, read-out: Neutral Red EC50
[6] = Cytotoxicity by neutral red dye uptake, BSC-1 cells; settings: African green monkey
HSV-1 = HSV-1 CPE inhibition in HFF cells
Adenovirus Type 5 [7] = assay: Adenovirus type 5 neutral red dye uptake in A549 cells; format: cell-based; settings: Human mastadenovirus C, A549; Adenovirus Type 5; read-out: Neutral Red EC50
[8] = tested on: Influenza A (H1N1) Texas/36/91; assay: microbe, parasite or virus in culture; format: cell-based, influenza A virus; settings: Influenza A virus, MDCK; Influenza A (H1N1) Texas/36/91; read-out: CPE Inhibition EC50
Measles Virus [9] = assay: Measles virus neutral red dye uptake in BSC-1 cells; format: cell-based; settings: Measles morbillivirus, BSC-1
Influenza B Panama/45/90 [10] = assay: microbe, parasite or virus in culture; format: cell-based; settings: Influenza B virus, MDCK, read-out: Neutral Red EC50
[11] = tested on: Parainfluenza Type 3 Virus; assay: organism not typed; format: cell-based; settings: MA104; Parainfluenza Type 3 Virus; read-out: CPI Inhibition EC50
in vitro [12] = settings: dog
Measles Virus [13] = assay: microbe, parasite or virus in culture; format: cell-based; settings: Measles morbillivirus, BSC-1; Measles Virus; read-out: CPI Inhibition EC50
in vitro [14] = settings: dog, Neutral Red IC50 (cytotoxic)
[15] = Cytotoxicity by neutral red dye uptake, A549 cells; settings: human
Influenza B Panama/45/90 [16] = assay: microbe, parasite or virus in culture; format: cell-based; settings: Influenza B virus, MDCK; Influenza B Panama/45/90; read-out: CPE Inhibition EC50
in vitro [17] = settings: African green monkey
[18] = tested on: Influenza A (H1N1) Texas/36/91; assay: microbe, parasite or virus in culture; format: cell-based, influenza A virus; settings: Influenza A virus, MDCK; Influenza A (H1N1) Texas/36/91; read-out: Neutral Red EC50
[19] = tested on: Influenza A (H3N2) Beijing/32/92; assay: microbe, parasite or virus in culture; format: cell-based, influenza A virus; settings: Influenza A virus, MDCK; Influenza A (H3N2) Beijing/32/92; read-out: Neutral Red EC50
HSV-2 = HSV-2 CPE inhibition in HFF cells
in vitro [20] = settings: African green monkey; remark: listed apart in the source
HCMV = HCMV CPE inhibition in HFF cells
[21] = tested on: Respiratory Syncytial Virus; assay: microbe, parasite or virus in culture; format: cell-based; settings: human respiratory syncytial virus, MA104; read-out: CPE Inhibition EC50
[22] = Cytotoxicity by neutral red dye uptake, MA-104 cells; settings: African green monkey, Neutral Red IC50 (cytotoxic)
Adenovirus Type 5 [23] = assay: microbe, parasite or virus in culture; format: cell-based; settings: Human mastadenovirus C, A549, read-out: CPE Inhibition EC50
[24] = 216 h, read-out: EC50 (50% effective dose), HBV Virion, 2.2.15 cells, extracellular (virion) HBV DNA, 9 days treatment
[25] = 216 h, read-out: EC90 (90% effective dose), HBV Virion, 2.2.15 cells, extracellular (virion) HBV DNA, 9 days treatment

**Q.** What does the source list for `Nc1nc2c(ncn2CCC(CO)CO)c(=O)[nH]1` [Penciclovir, penciclovir, reference compound]?
**A.** EC50 (Hepatitis B Virus (HBV); [24]): 190 nM; EC90 (Hepatitis B Virus (HBV); [25]): 920 nM; EC50 (Hepatitis B Virus (HBV); read-out: EC50, concentration necessary to decrease HBV DNA levels by 50%, 2.2.15 cells, combinations: with respect to RF): 190 nM; EC90 (Hepatitis B Virus (HBV); read-out: EC90, concentration necessary to decrease HBV DNA levels by 90%, 2.2.15 cells, combinations: with respect to RF): 920 nM; SI (CC50/EC90), HBV Virion (Hepatitis B Virus (HBV); selective index): 471; IC50 (2.2.15 cells): 433000 nM

**Q.** For `O=C1CC(c2ccc(O)cc2)Oc2cc(O)c(-c3c(O)cc4c(c3O)C(=O)CC(c3ccc(O)cc3)O4)c(O)c21` (centres unmarked) [Succedaneaflavanone (11), succedaneaflavanone], which CC50 at 3 days [1] is on record?
**A.** 60.7 µg/mL (≈ 112 µM)

**Q.** And the CC50 at 10 days [1]?
**A.** 60 µg/mL (≈ 111 µM)

**Q.** And the CC50 at 14 days [1]?
**A.** 55.5 µg/mL (≈ 102 µM)

**Q.** And the “activity against HIV-1 RT (in words)” value (HIV-1 RT)?
**A.** completely inactive

**Q.** And the inhibition at 200 µg/mL (HIV-1 RT; read-out: Anti-HIV-1 RT % Inhibition at 200 μg/ml)?
**A.** 22.1%

**Q.** What about the “Anti-HIV-1 RT IC50” value (HIV-1 RT; values in parentheses or in words) of the same compound?
**A.** Inactive

**Q.** And the EC50 [2]?
**A.** > 10 µg/mL

**Q.** What about the “VZV SI (CC50/EC50)” value (VZV) of the same compound?
**A.** < 3

**Q.** What about the “VZV SI (CC50/EC50)” value (VZV; listed as Succedaneaflavone (11)) of the same compound?
**A.** <3.0

**Q.** And the EC50 (VZV; Human alphaherpesvirus 3, HFF, read-out: VZV Plaque Reduction EC50)?
**A.** > 20 µg/mL

**Q.** What about the EC50 [3] of the same compound?
**A.** ~16 µg/mL (≈ 29.5 µM)

**Q.** And the IC50 (in vitro [4])?
**A.** 22 µg/mL (≈ 40.6 µM)

**Q.** What about the EC50 [5] of the same compound?
**A.** 23 µg/mL (≈ 42.4 µM)

**Q.** And the “anti-HBV activity (in words)” value (Hepatitis B Virus (HBV))?
**A.** inactive

**Q.** What about the “anti-HBV activity (in words)” value (Hepatitis B Virus (HBV); listed as succendaneaflavanone) of the same compound?
**A.** little or no anti-HBV activity

**Q.** What about the EC50 (Hepatitis B Virus (HBV); [24]) of the same compound?
**A.** > 100000 nM

**Q.** What about the EC90 (Hepatitis B Virus (HBV); [25]) of the same compound?
**A.** > 100000 nM

**Q.** And the IC50 [6]?
**A.** < 20 µg/mL

**Q.** What about the “HSV-1 SI (CC50/EC50)” value (HSV-1; HFF Cells) of the same compound?
**A.** <3.0

**Q.** What about the EC50 (HSV-1; Human alphaherpesvirus 1, HFF, read-out: HSV-1 CPE Inhibition EC50) of the same compound?
**A.** > 20 µg/mL

**Q.** What about the EC50 (Adenovirus Type 5 [7]) of the same compound?
**A.** 19 µg/mL (≈ 35 µM)

**Q.** And the EC50 [8]?
**A.** > 3.2 µg/mL

**Q.** What about the EC50 (Measles Virus [9]) of the same compound?
**A.** < 12 µg/mL

**Q.** And the EC50 (Influenza B Panama/45/90 [10])?
**A.** 2.2 µg/mL (≈ 4.06 µM)

**Q.** And the EC50 [11]?
**A.** > 10 µg/mL

**Q.** And the IC50 (in vitro [12]; CPE Inhibition IC50 (50% cell inhibitory (cytotoxic) concentration), Influenza A (H1N1) test)?
**A.** 4.9 µg/mL (≈ 9.03 µM)

**Q.** And the IC50 (in vitro [12]; CPE Inhibition IC50 (cytotoxic), Influenza A (H3N2) test)?
**A.** 12 µg/mL (≈ 22.1 µM)

**Q.** And the IC50 (in vitro [12]; CPE Inhibition IC50 (cytotoxic), Influenza B test)?
**A.** 15 µg/mL (≈ 27.6 µM)

**Q.** And the EC50 (Measles Virus [13])?
**A.** ~32 µg/mL (≈ 59 µM)

**Q.** What about the IC50 (in vitro [14]; Influenza A (H1N1) test) of the same compound?
**A.** 5 µg/mL (≈ 9.22 µM)

**Q.** What about the IC50 (in vitro [14]; Influenza A (H3N2) test) of the same compound?
**A.** 12 µg/mL (≈ 22.1 µM)

**Q.** What about the IC50 (in vitro [14]; Influenza B test) of the same compound?
**A.** 7 µg/mL (≈ 12.9 µM)

**Q.** What about the IC50 [15] of the same compound?
**A.** 27 µg/mL (≈ 49.8 µM)

**Q.** What about the EC50 (Influenza B Panama/45/90 [16]) of the same compound?
**A.** 0.97 µg/mL (≈ 1.79 µM)

**Q.** What about the IC50 (in vitro [17]) of the same compound?
**A.** < 23 µg/mL

**Q.** What about the EC50 [18] of the same compound?
**A.** 5.2 µg/mL (≈ 9.59 µM)

**Q.** What about the EC50 [19] of the same compound?
**A.** 12 µg/mL (≈ 22.1 µM)

**Q.** And the “HSV-2 SI (CC50/EC50)” value (HSV-2; HFF Cells)?
**A.** <3.0

**Q.** And the EC50 (HSV-2; Human alphaherpesvirus 2, HFF, read-out: HSV-2 CPE Inhibition EC50)?
**A.** > 20 µg/mL

**Q.** And the IC50 (in vitro [20]; CPE Inhibition IC50 (cytotoxic), Respiratory Syncytial Virus test)?
**A.** ~13 µg/mL (≈ 24 µM)

**Q.** And the IC50 (in vitro [20]; CPI Inhibition IC50 (cytotoxic), Parainfluenza Type 3 Virus test)?
**A.** ~22 µg/mL (≈ 40.6 µM)

**Q.** What about the “HCMV SI (CC50/EC50)” value (HCMV; HFF Cells) of the same compound?
**A.** <2.7

**Q.** What about the EC50 (HCMV; Human betaherpesvirus 5, HFF, read-out: HCMV CPE Inhibition EC50) of the same compound?
**A.** > 20 µg/mL

**Q.** And the EC50 [21]?
**A.** > 10 µg/mL

**Q.** What about the IC50 ([22]; Parainfluenza Type 3 Virus test) of the same compound?
**A.** ~29 µg/mL (≈ 53.5 µM)

**Q.** What about the IC50 ([22]; Respiratory Syncytial Virus test) of the same compound?
**A.** ~10 µg/mL (≈ 18.4 µM)

**Q.** And the EC50 (Adenovirus Type 5 [23])?
**A.** 10 µg/mL (≈ 18.4 µM)
